Reference: patent EP0587106B1, “Compositions containing lipophilic salts having neutron activable cations” (VECTORPHARMA INTERNATIONAL S.p.A., priority 1992, dated 1994)
Values after ≈ are worked out from the molar mass of the structure shown.

Test: physchem

CCCCCCCCCCCCCC(=O)O [Samarium miristate, samarium miristate]
solubility at 24 h (pH 1.2): 90 µg/mL (≈ 394 µM)
solubility at 24 h (pH 3): 8 µg/mL (≈ 35 µM)
solubility at 24 h (pH 5.2): < 2 µg/mL
solubility at 24 h (pH 7): < 2 µg/mL
